{"source": "patent EP2557075A1", "about": "“New triazene compounds for treating cancer” (Trin Therapeutics GmbH, priority 2011, dated 2013)", "key": {"MDA-MB231": {"test_system": "MDA-MB231", "assay": "IC50 of triazenes in MDA-MB231 cell line (Experiment 3)", "assay_type": "cell-based", "conditions": "Homo sapiens, MDA-MB-231; IC50 für die MDA-MB231 gemäß Experiment 3; used as incubation concentration for PBC", "source_text": "Die nachfolgenden Experimente 3 und 4 zeigen, dass die erfindungsgemäßen neuen Triazenverbindungen eine vergleichbare Anti-Tumorwirkung (IC50) in zahlreichen Krebszelllinien wie der HepG2 (Leber), HCT8 (Darm), DU-145 (Prostata), MCF-7 und MDA-MB-231 (Brust) und MiaPaca-2 (Bauchspeicheldrüse) bei bis zu 100fach niedrigeren Konzentrationen zeigen als vergleichbare Triazene wie DTIC, TMZ oder Substanzen wie sie in der WO 2009/004060 und der DE 1 7931 1 5 beschrieben sind.\nVerschiedene Triazene wie erfindungsgemäße Verbindungen nach Beispiel 1, DTIC, TMZ sowie Verbindungen nach Präparat 2 und 5 (entsprechend Verbindungen nach Präparat 2 und Beispiel 2a jeweils der WO 2009/004060) sowie Verbindungen nach Beispiel 33 der DE1793115 wurden in DMSO bzw. Wasser gelöst.\n(§1) Periphäre Blutzellen (PBC) werden jeweils mit der IC50 für die MDA-MB231 gemäß Experiment 3 der entsprechenden Substanzen inkubiert. Es wird gezeigt, dass die erfindungsgemäße Verbindung nach Beispiel 1 nicht mehr DNA-Schädigungen in den PBC erzeugt als eine Negativkontrolle, […]"}, "[1]": {"test_system": "periphere Blutzellen (PBC)", "assay": "Cell damage (apoptosis rate, CaspACE assay, flow cytometry) in peripheral blood cells (Experiment 5)", "assay_type": "cell-based", "conditions": "for % Zellen in Apoptose: Versuch 1 Lymphozyten, 24 Stunden incubation at the IC50 for MDA-MB231", "source_text": "Um die therapeutische Breite der neuen Substanzen abschätzen zu können, wurden periphere Blutzellen (PBC) und hämatologische Zellen (Nalm-6; CEM und U-937) für 24 Stunden mit unterschiedlichen Dosen verschiedener Triazenverbindungen bzw. Doxorubicin als positive Kontrolle für die hämatologischen Zelllinien inkubiert. Das Maß der Zellschädigung (Apoptoserate) wurde mittels CaspACE™ Assay (am Durchflusszytometer) bestimmt.\nVerschiedene Triazene wie erfindungsgemäße Verbindungen nach Beispiel 1, TMZ sowie Verbindungen nach Präparat 2 und 5 (entsprechend Verbindungen nach Präparat 2 und Beispiel 2a jeweils der WO 2009/004060) wurden in DMSO bzw. Wasser entsprechend den Angaben in Abbildung 22 gelöst.\nas §1"}, "HL-60": {"test_system": "HL-60", "assay": "Growth inhibition (IC50) in leukaemic HL-60 cells (Experiment 7)", "assay_type": "cell-based", "conditions": "Homo sapiens, HL-60, 24 Stunden", "source_text": "(§2) Hämatologische Zellen (CEM, HL-60) wurden für 24 Stunden mit unterschiedlichen Dosen verschiedener Triazenverbindungen inkubiert, um die IC50 zu bestimmen."}, "CEM": {"test_system": "CEM", "assay": "Growth inhibition (IC50) in leukaemic CEM cells (Experiment 7)", "assay_type": "cell-based", "conditions": "Homo sapiens, CCRF-CEM, 24 Stunden", "source_text": "as §2"}, "[2]": {"assay": "Formulation trials for intravenous application (Experiment 8)", "assay_type": "physicochemical", "description": "Um die Testergebnisse aus Experiment 7 in einem in-vivo Xenograft Modell zu bestätigen, wurden Formulierungsversuche mit Verbindungen nach Beispiel 1 sowie der Verbindung nach Beispiel 2 aus DE 1 793 1 15, als den wirksamsten Verbindungen aus Experiment 7, unternommen.\n15mg der Verbindung nach Beispiel 1 werden in 30µL DMSO ([…]) gelöst. Diese Stocklösung wird in 270µL 1 M Na2CO3 Lösung gegeben und nur leicht geschwenkt, nicht aber mittels Ultraschallbad behandelt.\nGleichermaßen sollte eine Formulierung für Verbindungen nach Beispiel 2 aus DE 1 7 93 1 15 hergestellt werden. Hier wurden 15µL der Verbindung nach Beispiel 2 vorgelegt. Bei einer Dichte von 1,08g/ml entsprach dies 16,2mg der Verbindung nach Beispiel 2. Dazu wurden 32,4µL DMSO gegeben. […] Sodann wurden 90µL einer frisch hergestellten 1 molaren Na2CO3 Lösung vorgelegt und 10µL der Lösung der Verbindung nach Beispiel 2 hinzugegeben. […] Auch mittels Ultraschallbad konnte keine Auflösung des erzeugten Niederschlags herbeiführen."}, "MCF-7-Zellen": {"test_system": "MCF-7-Zellen", "assay": "Intracellular metabolisation of triazenes in MCF-7 cell culture (Experiment 1)", "assay_type": "in vitro ADME", "conditions": "MCF-7, 100nmol/ml, 100% FCS, binnen 20 Stunden", "description": "Es wird gezeigt, dass Verbindungen nach Beispiel 1 schneller und in größerer Menge intrazellulär metabolisiert werden als die als Vergleichssubstanzen eingesetzten Verbindungen nach Präparat 2 und 5 (entsprechend Verbindungen nach Präparat 2 und Beispiel 2a jeweils der WO 2009/004060).\nDie getesteten Verbindungen wurden wie folgt gelöst: • Erfindungsgemäße Verbindung: • Beispiel 1 : in 20 mg/ml DMSO\nVergleichssubstanzen: • Präparat 2: in 50mg/ml DMSO, • Präparat 5: in 50mg/ml Wasser.\nAlle drei Substanzen wurden äquimolar in einer Dosis von 100nmol/ml auf 1 x 10^7 HepG2 bzw. MCF-7-Zellen gegeben. Als Zellkulturmedium wurde 100% fötales Kälberserum (FCS) verwendet. Für den Versuch wurde der Gehalt aus Ausgangsprodukt und Metaboliten im Zellüberstand nach 1, 3 und 6 (HepG2) bzw. 1,3 und 20 Stunden (MCF-7) Inkubationszeit ermittelt. Alle drei Substanzen zeigten in Kontrollversuchen mit 100% FCS nach 40 Stunden metabolische Stabilität."}, "[3]": {"conditions": "mean of Exp. 1-4, read-out: IC50 Mittelwert"}, "[4]": {"conditions": "mean of Exp. 1-5, read-out: IC50 Mittelwert"}}, "note": "Where two headings read alike, the source gives them in different places.", "data": [{"smiles": "CN(C)/N=N/c1[nH]cnc1C(N)=O", "note": "[Dacarbazine]", "values": [{"measurement": "IC50", "setting": "MDA-MB231", "value": 625, "unit": "µM"}, {"measurement": "% Zellen in Apoptose", "setting": "[1]", "value": "8,260%"}]}, {"smiles": "COc1cccc2c1C(=O)c1c(O)c3c(c(O)c1C2=O)C[C@@](O)(C(=O)CO)C[C@@H]3O[C@H]1C[C@H](N)[C@H](O)[C@H](C)O1", "note": "[Doxorubicin]", "values": [{"measurement": "IC50", "setting": "HL-60; read-out: IC50 Exp. 1", "value": 0.0012, "unit": "µM"}, {"measurement": "IC50", "setting": "HL-60; read-out: IC50 Exp. 2", "value": 0.00116, "unit": "µM"}, {"measurement": "IC50", "setting": "HL-60; read-out: IC50 Exp. 3", "value": 0.000662, "unit": "µM"}, {"measurement": "IC50", "setting": "HL-60; read-out: IC50 Exp. 4", "value": 0.00131, "unit": "µM"}, {"measurement": "IC50", "setting": "HL-60; read-out: IC50 Exp. 5", "value": 0.00134, "unit": "µM"}, {"measurement": "IC50", "setting": "CEM; [3]", "value": 8510, "unit": "µM"}, {"measurement": "IC50", "setting": "CEM; read-out: IC50 Exp. 1", "value": 6810, "unit": "µM"}, {"measurement": "IC50", "setting": "CEM; read-out: IC50 Exp. 2", "value": 5890, "unit": "µM"}, {"measurement": "IC50", "setting": "CEM; read-out: IC50 Exp. 3", "value": 9940, "unit": "µM"}, {"measurement": "IC50", "setting": "CEM; read-out: IC50 Exp. 4", "value": 114, "unit": "µM"}]}, {"smiles": "CN(C)N=Nc1ccc(C(=O)c2ccccc2)cc1", "note": "[Beispiel 2 der DE 1793115]", "values": [{"measurement": "IC50", "setting": "MDA-MB231", "value": 25.5, "unit": "µM"}, {"measurement": "% Zellen in Apoptose", "setting": "[1]", "value": "6,570%"}, {"measurement": "IC50", "setting": "HL-60; [4]", "value": 10, "unit": "µM"}, {"measurement": "IC50", "setting": "HL-60; read-out: IC50 Exp. 1", "value": 8.69, "unit": "µM"}, {"measurement": "IC50", "setting": "HL-60; read-out: IC50 Exp. 2", "value": 11.8, "unit": "µM"}, {"measurement": "IC50", "setting": "HL-60; read-out: IC50 Exp. 3", "value": 11.1, "unit": "µM"}, {"measurement": "IC50", "setting": "HL-60; read-out: IC50 Exp. 4", "value": 9.47, "unit": "µM"}, {"measurement": "IC50", "setting": "HL-60; read-out: IC50 Exp. 5", "value": 9.08, "unit": "µM"}, {"measurement": "IC50", "setting": "CEM; [3]", "value": 10, "unit": "µM"}, {"measurement": "IC50", "setting": "CEM; read-out: IC50 Exp. 1", "value": 10.3, "unit": "µM"}, {"measurement": "IC50", "setting": "CEM; read-out: IC50 Exp. 2", "value": 10.3, "unit": "µM"}, {"measurement": "IC50", "setting": "CEM; read-out: IC50 Exp. 3", "value": 8.69, "unit": "µM"}, {"measurement": "IC50", "setting": "CEM; read-out: IC50 Exp. 4", "value": 10.7, "unit": "µM"}, {"measurement": "Löslichkeit in DMSO", "setting": "[2]; 16,2mg in 32,4µL DMSO", "value": "löste sich vollständig"}, {"measurement": "Löslichkeit in der Formulierung", "setting": "[2]; DMSO stock solution given into 1 M Na2CO3 Lösung", "value": "Sofort fiel weißer Niederschlag aus"}, {"measurement": "stabile und verträgliche Formulierung", "setting": "[2]; Lösungsmittel wie Cremophor, PEG400, Tween80, Poloxamer", "value": "nicht erreicht werden konnte"}]}, {"smiles": "Cn1nnc2c(C(N)=O)ncn2c1=O", "note": "[Temozolomide, 4-methyl-5-oxo-2,3,4,6,8-pentazabicyclo [4.3.0] nona-2,7,9-triene-9-carboxamide]", "values": [{"measurement": "IC50", "setting": "MDA-MB231", "value": 515, "unit": "µM"}, {"measurement": "Zellschädigung (Apoptoserate) vs. Negativkontrolle", "setting": "[1]; PBC, 24 stündige Inkubation", "value": "Anstieg der Apoptoserate"}, {"measurement": "% Zellen in Apoptose", "setting": "[1]", "value": "15,320%"}]}, {"smiles": "CN(C)N=Nc1ccc(C(=O)c2ccc(OCCC(=O)NCC(=O)O)cc2)cc1", "note": "[Präparat 5]", "values": [{"measurement": "metabolisiert", "setting": "MCF-7-Zellen", "value": "~30", "unit": "%"}, {"measurement": "IC50", "setting": "HL-60; [4]", "value": 1190, "unit": "µM"}, {"measurement": "IC50", "setting": "HL-60; read-out: IC50 Exp. 1", "value": 829, "unit": "µM"}, {"measurement": "IC50", "setting": "HL-60; read-out: IC50 Exp. 2", "value": 879, "unit": "µM"}, {"measurement": "IC50", "setting": "HL-60; read-out: IC50 Exp. 3", "value": 1530, "unit": "µM"}, {"measurement": "IC50", "setting": "HL-60; read-out: IC50 Exp. 4", "value": 1510, "unit": "µM"}, {"measurement": "IC50", "setting": "CEM; [3]", "value": 735, "unit": "µM"}, {"measurement": "IC50", "setting": "CEM; read-out: IC50 Exp. 1", "value": 754, "unit": "µM"}, {"measurement": "IC50", "setting": "CEM; read-out: IC50 Exp. 2", "value": 879, "unit": "µM"}, {"measurement": "IC50", "setting": "CEM; read-out: IC50 Exp. 3", "value": 678, "unit": "µM"}, {"measurement": "IC50", "setting": "CEM; read-out: IC50 Exp. 4", "value": 628, "unit": "µM"}]}]}
